Among the data in PubChem BioAssay AID1259407 (Chemical Carcinogenesis Research Information System (CCRIS), 2018) are mutagenic call values, retold here.

This series concerns CCRIS mutagenicity, Ames/micronucleus/aberration tests. Kind of series: CCRIS mutagenicity studies.
Setting [1] is: Test System: AMES SALMONELLA TYPHIMURIUM, Strain/Indicator: TA98, Metabolic Activation: NONE, Method: PREINCUBATION
Setting [2] is: Test System: AMES SALMONELLA TYPHIMURIUM, Strain/Indicator: TA98, Metabolic Activation: NONE, Method: STANDARD PLATE.
[3] abbreviates: Test System: AMES SALMONELLA TYPHIMURIUM, Strain/Indicator: TA100, Metabolic Activation: NONE, Method: PREINCUBATION
[4] abbreviates: Test System: AMES SALMONELLA TYPHIMURIUM, Strain/Indicator: TA100, Metabolic Activation: NONE, Method: STANDARD PLATE.
[5] abbreviates: Test System: AMES SALMONELLA TYPHIMURIUM, Strain/Indicator: TA102, Metabolic Activation: NONE, Method: PREINCUBATION

SMILES strings stand for the structures. Calls of active or inactive are those of the source. The rule behind the calls is not given here.

With `Nc1ccc([N+](=O)[O-])cc1[N+](=O)[O-]`, the mutagenic call is, setting by setting: (End Point: IN VITRO CHROMOSOMAL ABERRATIONS, Test System: CHL CELLS, Metabolic Activation: NONE) “inactive; negative”; (End Point: IN VITRO CHROMOSOMAL ABERRATIONS, Test System: CHL CELLS, Metabolic Activation: RAT, LIVER, S-9, SODIUM PHENOBARBITAL AND 5,6-BENZOFLAVONE) “active; positive (structural changes)”; (End Point: IN VITRO CHROMOSOMAL ABERRATIONS, Test System: HUMAN PERIPHERAL LYMPHOCYTES, Metabolic Activation: NONE) “active; positive”; under setting [1], “active; positive”; under setting [2], “active; positive”; (Test System: AMES SALMONELLA TYPHIMURIUM, Strain/Indicator: TA98, Metabolic Activation: RAT, LIVER, S-9, AROCLOR 1254, Method: STANDARD PLATE) “active; positive”. Besides, the mutagenic call is “active; positive” (Test System: AMES SALMONELLA TYPHIMURIUM, Strain/Indicator: TA98, Metabolic Activation: RAT, LIVER, S-9, KANECHLOR 500, Method: PREINCUBATION); “active; positive” under setting [3]; “inactive; negative” under setting [4]; “inactive; negative” (Test System: AMES SALMONELLA TYPHIMURIUM, Strain/Indicator: TA100, Metabolic Activation: RAT, LIVER, S-9, AROCLOR 1254, Method: STANDARD PLATE); “active; positive” (Test System: AMES SALMONELLA TYPHIMURIUM, Strain/Indicator: TA100, Metabolic Activation: RAT, LIVER, S-9, KANECHLOR 500, Method: PREINCUBATION); “inactive; negative” (Test System: UDS RODENT HEPATOCYTES, Strain/Indicator: THY INCORP (NON-S-PHASE), Metabolic Activation: NONE, Method: AUTORADIOGRAPHY).
With `O=C[C@H](O)[C@@H](O)[C@H](O)CO`, the mutagenic call reads like this: (Test System: AMES SALMONELLA TYPHIMURIUM, Strain/Indicator: TA97A, Metabolic Activation: NONE, Method: PREINCUBATION) “inactive; negative”; (Test System: AMES SALMONELLA TYPHIMURIUM, Strain/Indicator: TA97A, Metabolic Activation: RAT, LIVER, S-9, AROCLOR 1254, Method: PREINCUBATION) “inactive; negative”; under setting [5], “inactive; negative”; (Test System: AMES SALMONELLA TYPHIMURIUM, Strain/Indicator: TA102, Metabolic Activation: RAT, LIVER, S-9, AROCLOR 1254, Method: PREINCUBATION) “inactive; negative”.
For `O=C(O)c1ccc(Cl)cc1Cl`, the mutagenic call is “inactive; negative. precipitation at highest dose” (Test System: Ames Salmonella typhimurium, Strain/Indicator: TA98, Metabolic Activation: None, Method: Preincubation); “inactive; negative. precipitation at highest dose” (Test System: Ames Salmonella typhimurium, Strain/Indicator: TA98, Metabolic Activation: Rat, Liver, S9, Phenobarbital and 5,6-benzoflavone, Method: Preincubation); “inactive; negative. precipitation at highest dose” (Test System: Ames Salmonella typhimurium, Strain/Indicator: TA100, Metabolic Activation: None, Method: Preincubation); “inactive; negative. precipitation at highest dose” (Test System: Ames Salmonella typhimurium, Strain/Indicator: TA100, Metabolic Activation: Rat, Liver, S9, Phenobarbital and 5,6-benzoflavone, Method: Preincubation); “inactive; negative. precipitation at highest dose” (Test System: Ames Salmonella typhimurium, Strain/Indicator: TA1535, Metabolic Activation: None, Method: Preincubation); “inactive; negative. precipitation at highest dose” (Test System: Ames Salmonella typhimurium, Strain/Indicator: TA1535, Metabolic Activation: Rat, Liver, S9, Phenobarbital and 5,6-benzoflavone, Method: Preincubation). For the same compound, the mutagenic call is “inactive; negative. precipitation at highest dose” (Test System: Ames Salmonella typhimurium, Strain/Indicator: TA1537, Metabolic Activation: None, Method: Preincubation); “inactive; negative. precipitation at highest dose” (Test System: Ames Salmonella typhimurium, Strain/Indicator: TA1537, Metabolic Activation: Rat, Liver, S9, Phenobarbital and 5,6-benzoflavone, Method: Preincubation); “inactive; negative. precipitation at highest dose” (Test System: E. coli, Strain/Indicator: WP2uvrA/pKM101, Metabolic Activation: None, Method: Preincubation); “inactive; negative. precipitation at highest dose” (Test System: E. coli, Strain/Indicator: WP2uvrA/pKM101, Metabolic Activation: Rat, Liver, S9, Phenobarbital and 5,6-benzoflavone, Method: Preincubation).
Consider `CCOCCCl`, for which the mutagenic call reads like this: under setting [1], “inactive; negative”; (Test System: AMES SALMONELLA TYPHIMURIUM, Strain/Indicator: TA98, Metabolic Activation: RAT, LIVER, S-9, PHENOBARBITAL AND BETA-NAPHTHOFLAVONE, Method: PREINCUBATION) “inactive; negative”; under setting [3], “inactive; negative”; (Test System: AMES SALMONELLA TYPHIMURIUM, Strain/Indicator: TA100, Metabolic Activation: RAT, LIVER, S-9, PHENOBARBITAL AND BETA-NAPHTHOFLAVONE, Method: PREINCUBATION) “inactive; negative”; under setting [5], “inactive; negative”; (Test System: AMES SALMONELLA TYPHIMURIUM, Strain/Indicator: TA102, Metabolic Activation: RAT, LIVER, S-9, PHENOBARBITAL AND BETA-NAPHTHOFLAVONE, Method: PREINCUBATION) “inactive; negative”. Further, the mutagenic call is “active; positive” (Test System: AMES SALMONELLA TYPHIMURIUM, Strain/Indicator: TA104, Metabolic Activation: NONE, Method: PREINCUBATION); “inactive; negative” (Test System: AMES SALMONELLA TYPHIMURIUM, Strain/Indicator: TA104, Metabolic Activation: RAT, LIVER, S-9, PHENOBARBITAL AND BETA-NAPHTHOFLAVONE, Method: PREINCUBATION); “inactive; negative” (Test System: AMES SALMONELLA TYPHIMURIUM, Strain/Indicator: TA1535, Metabolic Activation: NONE, Method: PREINCUBATION); “inactive; negative” (Test System: AMES SALMONELLA TYPHIMURIUM, Strain/Indicator: TA1535, Metabolic Activation: RAT, LIVER, S-9, PHENOBARBITAL AND BETA-NAPHTHOFLAVONE, Method: PREINCUBATION); “inactive; negative” (Test System: AMES SALMONELLA TYPHIMURIUM, Strain/Indicator: TA1537, Metabolic Activation: NONE, Method: PREINCUBATION); “inactive; negative” (Test System: AMES SALMONELLA TYPHIMURIUM, Strain/Indicator: TA1537, Metabolic Activation: RAT, LIVER, S-9, PHENOBARBITAL AND BETA-NAPHTHOFLAVONE, Method: PREINCUBATION). Also, the mutagenic call is, setting by setting: (Test System: E. COLI, Strain/Indicator: WP2UVRA/PKM101, Metabolic Activation: NONE, Method: PREINCUBATION) “inactive; negative”; (Test System: E. COLI, Strain/Indicator: WP2UVRA/PKM101, Metabolic Activation: RAT, LIVER, S-9, PHENOBARBITAL AND BETA-NAPHTHOFLAVONE, Method: PREINCUBATION) “inactive; negative”; (Test System: E. COLI, Strain/Indicator: WP2UVRA, Metabolic Activation: NONE, Method: PREINCUBATION) “inactive; negative”; (Test System: E. COLI, Strain/Indicator: WP2UVRA, Metabolic Activation: RAT, LIVER, S-9, PHENOBARBITAL AND BETA-NAPHTHOFLAVONE, Method: PREINCUBATION) “inactive; negative”.
On to `O=C1O[C@@H]2[C@@H](O)CO[C@]2(O)[C@@]1(O)Cc1c[nH]c2ccccc12`, for which the mutagenic call under setting [2] was “inactive; negative”; the mutagenic call (Test System: AMES SALMONELLA TYPHIMURIUM, Strain/Indicator: TA98, Metabolic Activation: RAT, LIVER, S-9, PCB, Method: STANDARD PLATE) was “inactive; negative”; the mutagenic call under setting [4] was “inactive; negative”; the mutagenic call (Test System: AMES SALMONELLA TYPHIMURIUM, Strain/Indicator: TA100, Metabolic Activation: RAT, LIVER, S-9, PCB, Method: STANDARD PLATE) is “inactive; negative”.
